Legend:
Assay type in all cases: in vivo
[1] = system: Pseudoperonospora cubensis; assay: Test 2: control effect against cucumber downy mildew; conditions: control value vs untreated section; for pest or weed control at 4 µg/mL: Pseudoperonospora cubensis, 120 h
Procedure, shortened: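 Cucumber (Sagami hanjiro) at 2-leaf stage sprayed with 4 ppm compound from 10% wettable powder in Tween20 (1/5000); inoculated next day with P. cubensis zoospores, 1.0×10^4 units/ml, 16 hr moist chamber at 22° C. Lesion area rate scored 5 days post-inoculation; control value = (1 − treated/untreated onset area rate)×100.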

[2] = system: Phytophthora infestans; assay: whole plant or invertebrate; conditions: for control value (Test 1): tomato late blight, control value vs untreated section; for pest or weed control at 4 µg/mL: Phytophthora infestans, in Solanum lycopersicum, 96 h, read-out: control value (Test 1)
[3] = system: Plasmopara viticola; assay: Test 3: control effect against grape downy mildew; conditions: control value vs untreated section; for pest or weed control at 4 µg/mL: Plasmopara viticola, 120 h
Procedure, shortened: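 Neomuscat grape seedlings were sprayed with compound at 4 ppm, diluted from a 10% wettable powder in Tween20 solution. One day later they were inoculated with Plasmopara viticola zoospores at 1.0×10^4 units/ml and held moist at 22° C. for 16 hr. Control value was derived from leaf lesion area at 5 days versus untreated leaves.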

Structure (SMILES) | control value (Test 2) [1] | control value (Test 1) [2] | control value (Test 3) [3] | pest or weed control at 4 µg/mL [1] [%] | pest or weed control at 4 µg/mL [2] [%] | pest or weed control at 4 µg/mL [3] [%]
Cc1cc(C(F)(F)F)nn1C(C)C(=O)N1CCC(c2nc(C3OCc4c(F)ccc(OS(C)(=O)=O)c4CO3)cs2)CC1 (stereo not drawn) [Compound 1-156] | 100 | 100 | 100 |  |  | 
Cc1cc(C(F)(F)F)nn1CC(=O)N1CCC(c2nc(C3OCc4c(F)ccc(OS(C)(=O)=O)c4CO3)cs2)C(C)C1 (stereo not drawn) [Compound 1-157] | 100 | 100 | 100 |  |  | 
Cc1cc(C(F)(F)F)nn1CC(=O)N1CCC(c2nc(C3OCc4c(F)ccc(OS(C)(=O)=O)c4CO3)cs2)CC1C (stereo not drawn) [Compound 1-159] | 100 | 100 | 100 |  |  | 
CC(C(=O)N1CCC(c2nc(C3OCc4c(F)ccc(OS(C)(=O)=O)c4CO3)cs2)CC1)n1nc(C(F)F)cc1C(F)F (stereo not drawn) [Compound 1-160] | 100 | 100 | 100 |  |  | 
Cc1cc(C(F)(F)F)nn1CC(=O)N1CCC(c2nc(C3OCc4c(O)ccc(F)c4CO3)cs2)CC1 (stereo not drawn) [Compound 1-161] | 100 | 100 | 100 |  |  | 
Cc1ccc(C)c(CC(=O)N2CCC(c3nc(C4OCc5c(F)ccc(F)c5CO4)cs3)CC2)c1 [Compound 2-6] | 100 | 100 | 100 |  |  | 
Cc1ccc(C)c(CC(=O)N2CCC(c3nc(C4OCc5c(F)ccc(OS(C)(=O)=O)c5CO4)cs3)CC2)c1 (stereo not drawn) [Compound 2-8] | 100 | 100 | 100 |  |  | 
COc1ccc([N+](=O)[O-])c2c1COC(c1csc(C3CCN(C(=O)Cc4cc(C)ccc4C)CC3)n1)OC2 (stereo not drawn) [Compound 2-9] | 100 | 100 | 100 |  |  | 
Cc1ccc(C)c(CC(=O)N2CCC(c3nc(C4OCc5ccccc5CO4)cs3)CC2)c1 [Compound 2-11] | 100 | 100 | 100 |  |  | 
CCCCS(=O)(=O)Oc1cccc2c1COC(c1csc(C3CCN(C(=O)Cc4cc(C)ccc4C)CC3)n1)OC2 (stereo not drawn) [Compound 2-12, 4-[4-(6-butylsulfonyloxy-1,5-dihydro-3H-2,4-benzodioxepin-3-yl)-2-thiazolyl]-1-[2-(2,5-dimethylphenyl)acetyl]piperidine] |  |  |  | 90 | 80 | 80
Cc1ccc(C)c(NC(=O)N2CCC(c3nc(C4OCc5c(F)ccc(OS(C)(=O)=O)c5CO4)cs3)CC2)c1 (stereo not drawn) [Compound 2-14] | 100 | 100 | 100 |  |  | 
Cc1ccc(C)c(NC(=O)N2CCC(c3nc(C4OCc5c(F)ccc(F)c5CO4)cs3)CC2)c1 [Compound 2-15] | 100 | 100 | 100 |  |  | 
CS(=O)(=O)Oc1ccc(F)c2c1COC(c1csc(C3CCN(C(=O)Cc4cc(Cl)ccc4Cl)CC3)n1)OC2 (stereo not drawn) [Compound 2-16] | 100 | 100 | 100 |  |  | 
Cc1ccc(C)c(CC(=O)N2CCC(c3nc(C4OCc5cccc(Br)c5CO4)cs3)CC2)c1 (stereo not drawn) [Compound 2-17] | 100 | 90 | 100 |  |  | 
O=C(Cc1cc(Cl)ccc1Cl)N1CCC(c2nc(C3OCc4ccc([N+](=O)[O-])cc4CO3)cs2)CC1 (stereo not drawn) [Compound 2-21] | 100 | 50 | 100 |  |  | 
COc1ccc(Br)c2c1COC(c1csc(C3CCN(C(=O)Cc4cc(C)ccc4C)CC3)n1)OC2 (stereo not drawn) [Compound 2-24] | 100 | 100 | 100 |  |  | 

Structure (SMILES) | control value (Test 2) [1] | control value (Test 1) [2] | control value (Test 3) [3] | pest or weed control at 4 µg/mL [1] [%] | pest or weed control at 4 µg/mL [2] [%] | pest or weed control at 4 µg/mL [3] [%]
COc1ccc(Br)c2c1COC(c1csc(C3CCN(C(=O)Cc4cc(Cl)ccc4Cl)CC3)n1)OC2 (stereo not drawn) [Compound 2-25] | 100 | 40 | 100 |  |  | 
COc1ccc(OS(C)(=O)=O)c2c1COC(c1csc(C3CCN(C(=O)Cc4cc(Cl)ccc4Cl)CC3)n1)OC2 (stereo not drawn) [Compound 2-26] | 100 | 100 | 100 |  |  | 
Cc1ccc(C)c(CC(=O)N2CCC(c3nc(C4OCc5c(F)c(F)c(F)c(F)c5CO4)cs3)CC2)c1 [Compound 2-27] | 100 | 100 | 100 |  |  | 
COc1ccc(OS(C)(=O)=O)c2c1COC(c1csc(C3CCN(C(=O)Cc4cc(C)ccc4C)CC3)n1)OC2 (stereo not drawn) [Compound 2-28] | 100 | 90 | 100 |  |  | 
CS(=O)(=O)Oc1cccc2c1COC(c1csc(C3CCN(C(=O)Cc4cc(C(F)(F)F)ccc4C(F)(F)F)CC3)n1)OC2 (stereo not drawn) [Compound 2-30, 4-[4-(6-methylsulfonyloxy-1,5-dihydro-3H-2,4-benzodioxepin-3-yl)-2-thiazolyl]-1-[2-[2,5-bis(trifluoromethyl)phenyl]acetyl]piperidine] |  |  |  | 100 | 30 | 100
Cc1ccc(C)c(CC(=O)N2CCC(c3nc(C4OCc5c(OS(C)(=O)=O)cc(C)c(C)c5CO4)cs3)CC2)c1 (stereo not drawn) [Compound 2-31, 4-[4-(6,7-dimethyl-9-methylsulfonyloxy-1,5-dihydro-3H-2,4-benzodioxepin-3-yl)-2-thiazolyl]-1-[2-(2,5-dimethylphenyl)acetyl]piperidine] |  |  |  | 100 | 0 | 100
Cc1cc(OS(C)(=O)=O)c2c(c1C)COC(c1csc(C3CCN(C(=O)Cc4cc(Cl)ccc4Cl)CC3)n1)OC2 (stereo not drawn) [Compound 2-32] | 100 | 100 | 100 |  |  | 
Cc1ccc(C)c(CC(=O)N2CCC(c3nc(C4OCc5c(Br)ccc(OS(C)(=O)=O)c5CO4)cs3)CC2)c1 (stereo not drawn) [Compound 2-33] | 100 | 20 | 100 |  |  | 
CS(=O)(=O)Oc1ccc([N+](=O)[O-])c2c1COC(c1csc(C3CCN(C(=O)Cc4cc(Cl)ccc4Cl)CC3)n1)OC2 (stereo not drawn) [Compound 2-34] | 100 | 90 | 100 |  |  | 
CS(=O)(=O)Oc1ccc(Br)c2c1COC(c1csc(C3CCN(C(=O)Cc4cc(Cl)ccc4Cl)CC3)n1)OC2 (stereo not drawn) [Compound 2-35] | 100 | 100 | 100 |  |  | 
O=C(Cc1cc(Cl)ccc1Cl)N1CCC(c2nc(C3OCc4cccc([N+](=O)[O-])c4CO3)cs2)CC1 (stereo not drawn) [Compound 2-36] | 100 | 100 | 100 |  |  | 
Cc1ccc(C)c(CC(=O)N2CCC(c3nc(C4OCc5c(OS(C)(=O)=O)ccc([N+](=O)[O-])c5CO4)cs3)CC2)c1 (stereo not drawn) [Compound 2-37] | 100 | 90 | 100 |  |  | 
Cc1ccc(C)c(CC(=O)N2CCC(c3nc(C4OCc5c(Cl)ccc(OS(C)(=O)=O)c5CO4)cs3)CC2)c1 (stereo not drawn) [Compound 2-38] | 100 | 100 | 100 |  |  | 
Cc1ccc(C)c(CC(=O)N2CCC(c3nc(C4OCc5c(I)ccc(OS(C)(=O)=O)c5CO4)cs3)CC2)c1 (stereo not drawn) [Compound 2-40] | 100 | 70 | 100 |  |  | 
CS(=O)(=O)Oc1ccc(Cl)c2c1COC(c1csc(C3CCN(C(=O)Cc4cc(Cl)ccc4Cl)CC3)n1)OC2 (stereo not drawn) [Compound 2-41] | 100 | 100 | 100 |  |  | 
Cc1ccc(C)c(CC(=O)N2CCC(c3nc(C4OCc5ccc(F)c(OS(C)(=O)=O)c5CO4)cs3)CC2)c1 (stereo not drawn) [Compound 2-42] | 100 | 90 | 100 |  |  | 

Source: patent US10104891B2 (priority 2014, dated 2018)
